From patent US10000535B2, “Template-fixed peptidomimetics” (POLYPHOR LTD., priority 2007, dated 2018)
Non-standard residues stand in square brackets, D forms with d. Residues, ends and D or L forms follow the SMILES beside them. Aze = O=C(O)[C@@H]1CCN1

Molecular target: T1, human CCR10 (Homo sapiens, UniProt P46092)
T1 construct: expressed in transfected cells; host or cells: mouse pre-B cell line 300-19
T1 sequence (P46092 1-362): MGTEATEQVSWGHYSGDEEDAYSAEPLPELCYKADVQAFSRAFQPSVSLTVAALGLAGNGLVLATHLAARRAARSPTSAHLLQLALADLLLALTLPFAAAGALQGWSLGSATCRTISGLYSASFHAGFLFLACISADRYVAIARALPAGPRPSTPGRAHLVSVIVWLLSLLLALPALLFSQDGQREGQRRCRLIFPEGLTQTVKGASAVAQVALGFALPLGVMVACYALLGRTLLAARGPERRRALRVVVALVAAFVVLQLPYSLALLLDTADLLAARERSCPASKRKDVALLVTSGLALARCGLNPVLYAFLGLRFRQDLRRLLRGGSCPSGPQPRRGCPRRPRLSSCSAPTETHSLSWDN
Assay: Calcium flux antagonism assay with human CCL27
Assay type: cell-based
Details: at 10 μM
Protocol: The mouse pre-B cell line 300-19 was stably transfected with the cDNA encoding the human UTR2 receptor (GenBank Acc#NM_018949), and expression was confirmed with a positive calcium signal in response to human urotensin (Sigma Aldrich). Increases in intracellular calcium were monitored using a Flexstation 384 (Molecular Devices, Sunnyvale, Calif.). The cells were batch loaded with the Calcium 3 Assay kit (Molecular Devices) in assay buffer (Hanks Balanced salt solution, HBSS, 20 mM HEPES, pH 7.4, 0.1% BSA) for 1 h at room temperature and labeled cells were dispensed into either black 96 well or 384 well assay plates (Greiner). Calcium mobilization induced by urotensin or compounds was measured in the Flexstation 384 (excitation, […]) for 70 seconds. Agonist activity was determined by direct addition of ligand or peptides, while antagonists were identified by pre-incubation of compounds with cells prior to urotensin addition. A dose response curve (compound concentration versus % maximum response for urotensin) was determined for each active agonist and antagonist and was fitted to a four parameter logistic equation using SoftmaxPro 4.6 (Molecular Devices), from which EC50% and IC50% values were calculated.
Peptides for CCR10 (Marchese et. al. 1994, Homey et. al.) and CXCR3 (Loetscher et. al. 1998, Marchese et. al. 1995) antagonism were assayed in a mouse pre-B cell line 300-19 stably transfected with either human CCR10 or CXCR3 (Marchese et. al. 1995). Antagonism at each receptor was measured with a calcium flux assay in these cells as described above for UTR2 assays using human CCL27 and human CXCL10 (Cole et. al.) for CCR10 and CXCR3 respectively.
Selectivity was measured using the calcium flux assay on a panel of human chemokine receptor bearing cell lines (CCR1, CCR2, CCR3, CCR4, CCR5, CCR6, CCR7, CCR8, CCR9, CCR10, CXCR1, CXCR2, CXCR2, CXCR4, CXCR6 and CXCCR1) using the same method as above

Row | SMILES | selectivity against CCR10
1 | N=C(N)NCCC[C@@H]1NC(=O)[C@H](Cc2c[nH]c3ccccc23)NC(=O)[C@H](Cc2ccc(O)cc2)NC(=O)[C@@H]2CCN2C(=O)[C@H]2CCCN2C(=O)CNC1=O [Example 15] (cyclo(YWRG[dP][Aze])) | highly selective
2 | C[C@@H]1NC(=O)[C@H](CCCNC(=N)N)NC(=O)[C@H](Cc2c[nH]c3ccccc23)NC(=O)[C@H](Cc2ccc(O)cc2)NC(=O)[C@@H]2CCN2C(=O)[C@H]2CCCN2C1=O [Example 16] (cyclo(YWRA[dP][Aze])) | highly selective
